Measured values reported in patent US11839613B2, “Pyrimidine derivatives as PGE2 receptor modulators” (IDORSIA PHARMACEUTICALS LTD, priority 2017, dated 2023).

How the values were obtained:
[1] = target: PTGER2 (EP2) (Homo sapiens (Human), UniProt P43116); assay: hEP2 b-arrestin assay (PathHunter HEK 293 PTGER2 b-arrestin cells); type: cell-based; settings: antagonistic activity, beta-arrestin assay; read-out: hEP2 b-arr IC50
Protocol: Plate is pre-incubated 15 minutes at 37° C. Then five microliters of PGE2 (final conc. 5 μM) are transferred into the assay plate. Plate is incubated 120 minutes at 37° C.
(each concentration is measured in duplicate)

[2] = target: PTGER4 (EP4) (Homo sapiens (Human), UniProt P35408); assay: cell-based
Chain of PTGER4 (EP4) (P35408 whole entry): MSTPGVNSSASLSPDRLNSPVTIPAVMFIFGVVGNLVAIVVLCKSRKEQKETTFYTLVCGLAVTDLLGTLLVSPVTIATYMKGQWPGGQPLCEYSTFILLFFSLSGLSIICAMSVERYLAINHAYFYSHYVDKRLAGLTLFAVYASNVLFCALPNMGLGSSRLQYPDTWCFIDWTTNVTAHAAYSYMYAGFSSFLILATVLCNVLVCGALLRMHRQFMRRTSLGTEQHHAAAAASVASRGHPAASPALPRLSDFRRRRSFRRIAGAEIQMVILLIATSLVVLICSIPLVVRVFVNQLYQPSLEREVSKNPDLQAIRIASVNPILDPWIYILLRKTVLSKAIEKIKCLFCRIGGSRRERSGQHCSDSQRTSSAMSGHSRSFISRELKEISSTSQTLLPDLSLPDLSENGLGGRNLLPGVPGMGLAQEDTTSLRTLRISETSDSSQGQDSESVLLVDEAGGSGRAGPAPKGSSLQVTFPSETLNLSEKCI

Chain of PTGER2 (EP2) (P43116 whole entry): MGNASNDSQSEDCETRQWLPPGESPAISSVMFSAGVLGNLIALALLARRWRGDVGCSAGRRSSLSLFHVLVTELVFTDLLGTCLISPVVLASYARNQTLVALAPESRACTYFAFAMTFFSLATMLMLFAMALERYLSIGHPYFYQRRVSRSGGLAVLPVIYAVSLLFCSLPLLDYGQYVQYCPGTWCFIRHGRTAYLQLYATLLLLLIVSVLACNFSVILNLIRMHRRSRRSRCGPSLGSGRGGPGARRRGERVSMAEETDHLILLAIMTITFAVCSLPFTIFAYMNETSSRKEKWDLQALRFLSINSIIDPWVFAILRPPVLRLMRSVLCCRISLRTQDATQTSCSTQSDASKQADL

SMILES	IC50 [1] [µM]	IC50 [2] [µM]
CCCc1cc(-c2cc(NCCc3cc4c(cc3OC)OCCO4)ncn2)ccc1C(C)C(=O)O (racemic) [Example 401, rac-2-(4-{6-[2-(7-Methoxy-2,3-dihydro-benzo[1,4]dioxin-6-yl)-ethylamino]-pyrimidin-4-yl]-2-propyl-phenyl)-propionic acid]	0.331	0.114
O=C(O)C1Cc2cc(-c3cc(NCCc4ccc5sccc5c4)ncn3)ccc2O1 (racemic) [Example 474, rac-5-[6-(2-Benzo[b]thiophen-5-yl-ethylamino)-pyrimidin-4-yl]-2,3-dihydro-benzofuran-2-carboxylic acid]	0.272	0.914
CCCc1cc(-c2cc(NCCc3ccc4sccc4c3)ncn2)ccc1C(C)C(=O)O (racemic) [Example 481, rac-2-{4-[6-(2-Benzo[b]thiophen-5-yl-ethylamino)-pyrimidin-4-yl]-2-propyl-phenyl}-propionic acid]	0.328	0.063
CCCc1cc(-c2cc(NCCc3ccc4sccc4c3F)ncn2)ccc1C(C)C(=O)O (racemic) [Example 482, rac-2-(4 -{6-[2-(4-Fluoro-benzo[b]thiophen-5-yl)-ethylamino]-pyrimidin-4-yl}-2-propyl-phenyl)-propionic acid]	0.444	0.091
CCOc1cc(-c2cc(NCCc3cc(F)c4sccc4c3)ncn2)ccc1C(=O)O [Example 361, 2-Ethoxy-4-{6-[2-(7-fluoro-benzo[b]thiophen-5-yl)-ethylamino]-pyrimidin-4-yl}-benzoic acid]	0.187	0.116
CCOc1cc(-c2cc(NCCc3cc(F)c4sccc4c3)ncn2)ccc1CC(=O)O [Example 363, (2-Ethoxy-4-{6-[2-(7-fluoro-benzo[b]thiophen-5-yl)-ethylamino]-pyrimidin-4-yl}-phenyl)-acetic acid]	0.479	0.059
CSc1cc(-c2cc(NCCc3cc(F)c4sccc4c3)ncn2)ccc1C(=O)O [Example 364, 4-{6-[2-(7-Fluoro-benzo[b]thiophen-5-yl)-ethylamino]-pyrimidin-4-yl}-2-methylsulfanyl-benzoic acid]	0.151	0.052
O=C(O)c1ccc(-c2cc(NCCc3ccc4sccc4c3F)ncn2)cc1OC1CCC1 [Example 366, 2-Cyclobutoxy-4-{6-[2-(4-fluoro-benzo[b]thiophen-5-yl)-ethylamino]-pyrimidin-4-yl}-benzoic acid]	0.084	0.119
CCOc1cc(-c2cc(NCCc3ccc4sccc4c3F)ncn2)ccc1CC(=O)O [Example 368, (2-Ethoxy-4-{6-[2-(4-fluoro-benzo[b]thiophen-5-yl)-ethylamino]-pyrimidin-4-yl}-phenyl)-acetic acid]	0.221	0.066
CCOc1cc(-c2cc(NCCc3ccc4sccc4c3)ncn2)cc(F)c1CC(=O)O [Example 370, {4-[6-(2-Benzo[b]thiophen-5-yl-ethylamino)-pyrimidin-4-yl]-2-ethoxy-6-fluoro-phenyl}-acetic acid]	0.438	0.105
CCOc1cc(-c2cc(NCCc3cc4c(cc3OC)OCCO4)ncn2)cc(F)c1CC(=O)O [Example 373, (2-Ethoxy-6-fluoro-4-{6-[2-(7-methoxy-2,3-dihydro-benzo[1,4]dioxin-6-yl)-ethylamino]-pyrimidin-4-yl}-phenyl)-acetic acid]	0.257	0.118
CCOc1cc(-c2cc(NCCc3c(OC)cc4ccccc4c3C)ncn2)cc(F)c1CC(=O)O [Example 374, (2-Ethoxy-6-fluoro-4-{6-[2-(3-methoxy-1-methyl-naphthalen-2-yl)-ethylamino]-pyrimidin-4-yl}-phenyl)-acetic acid]	0.334	0.052
CCOc1cc(-c2cc(NCCc3ccc4sccc4c3F)ncn2)cc(F)c1CC(=O)O [Example 375, (2-Ethoxy-6-fluoro-4-{6-[2-(4-fluoro-benzo[b]thiophen-5-yl)-ethylamino]-pyrimidin-4-yl}-phenyl)-acetic acid]	0.229	0.046
COc1cc(-c2cc(NCCc3ccc4sccc4c3F)ncn2)ccc1CC(=O)O [Example 382, (4-{6-[2-(4-Fluoro-benzo[b]thiophen-5-yl)-ethylamino]-pyrimidin-4-yl}-2-methoxy-phenyl)-acetic acid]	0.16	0.081
COc1cc2c(cc1CCNc1cc(-c3ccc(CC(=O)O)c(OC)c3)ncn1)OCCO2 [Example 383, (2-Methoxy-4-{6-[2-(7-methoxy-2,3-dihydro-benzo[1,4]dioxin-6-yl)-ethylamino]-pyrimidin-4-yl}-phenyl)-acetic acid]	0.177	0.194
COc1cc(-c2cc(NCCc3c(OC)cc4ccccc4c3C)ncn2)ccc1CC(=O)O [Example 384, (2-Methoxy-4-{6-[2-(3-methoxy-1-methyl-naphthalen-2-yl)-ethylamino]-pyrimidin-4-yl}-phenyl)-acetic acid]	0.145	0.028

The remaining lines, values ahead:

IC50 [1] [µM]	IC50 [2] [µM]	SMILES
0.059	0.136	CCCc1cc(-c2cc(NCCc3cc4c(cc3OCC)OCCO4)ncn2)ccc1C(C)C(=O)O (racemic) [Example 487, rac-2-(4-{6-[2-(7-Ethoxy-2,3-dihydro-benzo[1,4]dioxin-6-yl)-ethylamino]-pyrimidin-4-yl}-2-propyl-phenyl)-propionic acid]
0.02	0.006	CCOc1cc(-c2cc(NCCc3cc(F)c4sccc4c3)ncn2)sc1C(=O)O [Example 362, 3-Ethoxy-5-{6-[2-(7-fluoro-benzo[b]thiophen-5-yl)-ethylamino]-pyrimidin-4-yl}-thiophene-2-carboxylic acid]
0.077	0.149	CCOc1cc(-c2cc(NCCc3ccc4sccc4c3F)ncn2)ccc1C(=O)O [Example 365, 2-Ethoxy-4-{6-[2-(4-fluoro-benzo[b]thiophen-5-yl)-ethylamino]-pyrimidin-4-yl}-benzoic acid]
0.007	0.002	CCOc1cc(-c2cc(NCCc3ccc4sccc4c3F)ncn2)sc1C(=O)O [Example 367, 3-Ethoxy-5-{6-[2-(4-fluoro-benzo[b]thiophen-5-yl)-ethylamino]-pyrimidin-4-yl}-thiophene-2-carboxylic acid]
0.086	0.088	CCOc1cc(-c2cc(NCCc3cc4ccsc4cc3OC)ncn2)cc(F)c1CC(=O)O [Example 371, (2-Ethoxy-6-fluoro-4-{6-[2-(6-methoxy-benzo[b]thiophen-5-yl)-ethylamino]-pyrimidin-4-yl}-phenyl)-acetic acid]
0.075	0.195	CCOc1cc(-c2cc(NCCc3ccc4sccc4c3C)ncn2)cc(F)c1CC(=O)O [Example 372, (2-Ethoxy-6-fluoro-4-{6-[2-(4-methyl-benzo[b]thiophen-5-yl)-ethylamino]-pyrimidin-4-yl}-phenyl)-acetic acid]
0.05	0.013	CCOc1cc(-c2cc(NCCc3ccc4ccsc4c3C)ncn2)sc1C(=O)O [Example 376, 3-Ethoxy-5-{6-[2-(7-methyl-benzo[b]thiophen-6-yl)-ethylamino]-pyrimidin-4-yl}-thiophene-2-carboxylic acid]
0.008	0.068	CCCc1cc(-c2cc(NCCc3cc4ccsc4cc3OC)ncn2)ccc1C(=O)O [Example 377, 4-{6-[2-(6-Methoxy-benzo[b]thiophen-5-yl)-ethylamino]-pyrimidin-4-yl}-2-propyl-benzoic acid]
0.02	0.036	CCCc1cc(-c2cc(NCCc3ccc4sccc4c3F)ncn2)ccc1C(=O)O [Example 378, 4-{6-[2-(4-Fluoro-benzo[b]thiophen-5-yl)-ethylamino]-pyrimidin-4-yl}-2-propyl-benzoic acid]
0.051	0.155	CCCc1cc(-c2cc(NCCc3cc4c(cc3OC)OCCO4)ncn2)ccc1C(=O)O [Example 379, 4-{6-[2-(7-Methoxy-2,3-dihydro-benzo[1,4]dioxin-6-yl)-ethylamino]-pyrimidin-4-yl}-2-propyl-benzoic acid]
0.016	0.017	CCCc1cc(-c2cc(NCCc3c(OC)cc4ccccc4c3C)ncn2)ccc1C(=O)O [Example 380, 4-{6-[2-(3-Methoxy-1-methyl-naphthalen-2-yl)-ethylamino]-pyrimidin-4-yl}-2-propyl-benzoic acid]
0.051	0.126	COc1cc2sccc2cc1CCNc1cc(-c2ccc(CC(=O)O)c(OC)c2)ncn1 [Example 381, (2-Methoxy-4-{6-[2-(6-methoxy-benzo[b]thiophen-5-yl)-ethylamino]-pyrimidin-4-yl}-phenyl)-acetic acid]
0.061	0.049	CCCc1cc(-c2cc(NCCc3cc4c(cc3OC)OCCO4)ncn2)ccc1CC(=O)O [Example 387, (4-{6-[2-(7-Methoxy-2,3-dihydro-benzo[1,4]dioxin-6-yl)-ethylamino]-pyrimidin-4-yl}-2-propyl-phenyl)-acetic acid]
0.045	0.013	CCCc1cc(-c2cc(NCCc3c(OC)cc4ccccc4c3C)ncn2)ccc1CC(=O)O [Example 388, (4-{6-[2-(3-Methoxy-1-methyl-naphthalen-2-yl)-ethylamino]-pyrimidin-4-yl}-2-propyl-phenyl)-acetic acid]
0.051	0.025	CCCc1cc(-c2cc(NCCc3cc(F)c4sccc4c3)ncn2)ccc1C(=O)O [Example 389, 4-{6-[2-(7-Fluoro-benzo[b]thiophen-5-yl)-ethylamino]-pyrimidin-4-yl}-2-propyl-benzoic acid]
0.131	0.019	CCOc1cc(-c2cc(NCCc3cc(C)c4sccc4c3)ncn2)sc1C(=O)O [Example 391, 3-Ethoxy-5-{6-[2-(7-methyl-benzo[b]thiophen-5-yl)-ethylamino]-pyrimidin-4-yl}-thiophene-2-carboxylic acid]
